Read-outs that look alike come from different tables or passages of the source.
Assays:
LATS2 = target: T1, LATS2 (Homo sapiens, UniProt Q9NRM7); assay: RBC kinase panel; format: biochemical; conditions: ATP 10 μM, Data1, Data2
T1 construct: purchased Reaction Biology Corporation
Method: (§1) PK68 was tested at 1 μM in duplicate against a panel of 369 human kinases at Reaction Biology Corporation. Results are viewed in the human kinome phylogenetic tree.
(§2) ^a Compound PK68 was tested at 1 μM in duplicate against 369 kinases using the RBC kinase panel service of Reaction Biology Corporation. All the ATP concentrations used were 10 μM. […] Full protocol details are available at http://www.reactionbiology.com.

OSR1/OXSR1 = target: T2, OSR1/OXSR1 (Homo sapiens, UniProt O95747); assay: RBC kinase panel; format: biochemical; conditions: ATP 10 μM, Data1, Data2
T2 construct: purchased Reaction Biology Corporation
Method: as §1, §2

NEK9 = target: T3, NEK9 (Homo sapiens, UniProt Q8TD19); assay: RBC kinase panel; format: biochemical; conditions: ATP 10 μM, Data1, Data2
T3 construct: purchased Reaction Biology Corporation
Method: as §1, §2

CK2a = target: T4, CK2a (Homo sapiens, UniProt P68400); assay: RBC kinase panel; format: biochemical; conditions: ATP 10 μM, Data1, Data2
T4 construct: purchased Reaction Biology Corporation
Method: as §1, §2

TAOK3/JIK = target: T5, TAOK3/JIK (Homo sapiens, UniProt Q9H2K8); assay: RBC kinase panel; format: biochemical; conditions: ATP 10 μM, Data1, Data2
T5 construct: purchased Reaction Biology Corporation
Method: as §1, §2

RET = target: T6, RET (Homo sapiens, UniProt P07949); assay: RBC kinase panel; format: biochemical; conditions: ATP 10 μM, Data1, Data2
T6 construct: purchased Reaction Biology Corporation
Method: as §1, §2

TAOK2/TAO1 = target: T7, TAOK2/TAO1 (Homo sapiens, UniProt Q9UL54); assay: RBC kinase panel; format: biochemical; conditions: ATP 10 μM, Data1, Data2
T7 construct: purchased Reaction Biology Corporation
Method: as §1, §2

STK25/YSK1 = target: T8, STK25/YSK1 (Homo sapiens, UniProt O00506); assay: RBC kinase panel; format: biochemical; conditions: ATP 10 μM, Data1, Data2
T8 construct: purchased Reaction Biology Corporation
Method: as §1, §2

TLK1 = target: T9, TLK1 (Homo sapiens, UniProt Q9UKI8); assay: RBC kinase panel; format: biochemical; conditions: ATP 10 μM, Data1, Data2
T9 construct: purchased Reaction Biology Corporation
Method: as §1, §2

ACK1 = target: T10, ACK1 (Homo sapiens, UniProt Q07912); assay: RBC kinase panel; format: biochemical; conditions: ATP 10 μM, Data1, Data2
T10 construct: purchased Reaction Biology Corporation
Method: as §1, §2

ERN1/IRE1 = target: T11, ERN1/IRE1 (Homo sapiens, UniProt O75460); assay: RBC kinase panel; format: biochemical; conditions: ATP 10 μM, Data1, Data2
T11 construct: purchased Reaction Biology Corporation
Method: as §1, §2

DMPK = target: T12, DMPK (Homo sapiens, UniProt Q09013); assay: RBC kinase panel; format: biochemical; conditions: ATP 10 μM, Data1, Data2
T12 construct: purchased Reaction Biology Corporation
Method: as §1, §2

BMX/ETK = target: T13, BMX/ETK (Homo sapiens, UniProt P51813); assay: RBC kinase panel; format: biochemical; conditions: ATP 10 μM, Data1, Data2
T13 construct: purchased Reaction Biology Corporation
Method: as §1, §2

PLK4/SAK = target: T14, PLK4/SAK (Homo sapiens, UniProt O00444); assay: RBC kinase panel; format: biochemical; conditions: ATP 10 μM, Data1, Data2
T14 construct: purchased Reaction Biology Corporation
Method: as §1, §2

c-MER = target: T15, c-MER (Homo sapiens, UniProt Q12866); assay: RBC kinase panel; format: biochemical; conditions: ATP 10 μM, Data1, Data2
T15 construct: purchased Reaction Biology Corporation
Method: as §1, §2

LYN B = target: T16, LYN B (Homo sapiens, UniProt P07948); assay: RBC kinase panel; format: biochemical; conditions: ATP 10 μM, Data1, Data2
T16 construct: purchased Reaction Biology Corporation
Method: as §1, §2

LCK = target: T17, LCK (Homo sapiens, UniProt P06239); assay: RBC kinase panel; format: biochemical; conditions: ATP 10 μM, Data1, Data2
T17 construct: purchased Reaction Biology Corporation
Method: as §1, §2

PYK2 = target: T18, PYK2 (Homo sapiens, UniProt Q14289); assay: RBC kinase panel; format: biochemical; conditions: ATP 10 μM, Data1, Data2
T18 construct: purchased Reaction Biology Corporation
Method: as §1, §2

MARK2/PAR-1Ba = target: T19, MARK2/PAR-1Ba (Homo sapiens, UniProt Q7KZI7); assay: RBC kinase panel; format: biochemical; conditions: ATP 10 μM, Data1, Data2
T19 construct: purchased Reaction Biology Corporation
Method: as §1, §2

TSSK2 = target: T20, TSSK2 (Homo sapiens, UniProt Q96PF2); assay: RBC kinase panel; format: biochemical; conditions: ATP 10 μM, Data1, Data2
T20 construct: purchased Reaction Biology Corporation
Method: as §1, §2

[1] = Pharmacokinetic profile in mice; format: in vivo; conditions: ICR, mouse, plasma; for AUC(0-t): read-out: AUC0-24
Method: Encouraged by our overall satisfactory in vitro potency and selectivity data for PK68, we decided to assess its in vivo pharmacokinetic profile.
Data represent mean value ± standard deviation. b Plasma pharmacokinetic parameters of PO and IV. c, d C57BL/6 mice (n = 5) were treated with the indicated daily oral gavage dosing of PK68 for successive 14 days. Body weight (c) and hematoxylin-eosin (H&E) staining (d) of mice were analyzed. Control mice received an equal amount of vehicle. Magnification: ×40. Data represent mean value ± standard deviation TEXT PRINTED IN THE PICTURE: (b) no label printed: Tmax (hr): 0.5 (PO (Gavage)); Cmax (ng/mL): 2423 (PO (Gavage)); AUC0-24 (ng/mL*hr): 4821 (PO (Gavage)); AUC0-24 (ng/mL*hr): 1588 (IV (Bolus)); AUCINF (ng/mL*hr): 4897 (PO (Gavage)); AUCINF (ng/mL*hr): 1590 (IV (Bolus)); t1/2 (hr): 1.3 (PO (Gavage)); t1/2 (hr): 1.0 (IV (Bolus)); MRT (hr): 1.8 (PO (Gavage)); MRT (hr): 0.8 (IV (Bolus)); CL (mL/hr/kg): 1258 (IV (Bolus)); CL (mL/min/kg): 21 (IV (Bolus)); Vss (mL/kg): 1009 (IV (Bolus)); Vss (L/kg): 1.0 (IV (Bolus)); F(%): 61 (PO (Gavage)) DOUBTS OF THE COPYIST ABOUT THIS PICTURE: Panel b prints no substance label with the PK table. The name PK68 is printed only in panels c and d, so the label is left empty.
Judging by the PK time curve, the observed plasma levels of PK68 were above its EC50 over a period of 8 h. […] These doses were meant to determine the preliminary toxicity effects of PK68 (Fig. 6c). […] We further performed histology of various tissues from mice that had received 14-day treatment of PK68.

T7 sequence (Q9UL54 whole entry): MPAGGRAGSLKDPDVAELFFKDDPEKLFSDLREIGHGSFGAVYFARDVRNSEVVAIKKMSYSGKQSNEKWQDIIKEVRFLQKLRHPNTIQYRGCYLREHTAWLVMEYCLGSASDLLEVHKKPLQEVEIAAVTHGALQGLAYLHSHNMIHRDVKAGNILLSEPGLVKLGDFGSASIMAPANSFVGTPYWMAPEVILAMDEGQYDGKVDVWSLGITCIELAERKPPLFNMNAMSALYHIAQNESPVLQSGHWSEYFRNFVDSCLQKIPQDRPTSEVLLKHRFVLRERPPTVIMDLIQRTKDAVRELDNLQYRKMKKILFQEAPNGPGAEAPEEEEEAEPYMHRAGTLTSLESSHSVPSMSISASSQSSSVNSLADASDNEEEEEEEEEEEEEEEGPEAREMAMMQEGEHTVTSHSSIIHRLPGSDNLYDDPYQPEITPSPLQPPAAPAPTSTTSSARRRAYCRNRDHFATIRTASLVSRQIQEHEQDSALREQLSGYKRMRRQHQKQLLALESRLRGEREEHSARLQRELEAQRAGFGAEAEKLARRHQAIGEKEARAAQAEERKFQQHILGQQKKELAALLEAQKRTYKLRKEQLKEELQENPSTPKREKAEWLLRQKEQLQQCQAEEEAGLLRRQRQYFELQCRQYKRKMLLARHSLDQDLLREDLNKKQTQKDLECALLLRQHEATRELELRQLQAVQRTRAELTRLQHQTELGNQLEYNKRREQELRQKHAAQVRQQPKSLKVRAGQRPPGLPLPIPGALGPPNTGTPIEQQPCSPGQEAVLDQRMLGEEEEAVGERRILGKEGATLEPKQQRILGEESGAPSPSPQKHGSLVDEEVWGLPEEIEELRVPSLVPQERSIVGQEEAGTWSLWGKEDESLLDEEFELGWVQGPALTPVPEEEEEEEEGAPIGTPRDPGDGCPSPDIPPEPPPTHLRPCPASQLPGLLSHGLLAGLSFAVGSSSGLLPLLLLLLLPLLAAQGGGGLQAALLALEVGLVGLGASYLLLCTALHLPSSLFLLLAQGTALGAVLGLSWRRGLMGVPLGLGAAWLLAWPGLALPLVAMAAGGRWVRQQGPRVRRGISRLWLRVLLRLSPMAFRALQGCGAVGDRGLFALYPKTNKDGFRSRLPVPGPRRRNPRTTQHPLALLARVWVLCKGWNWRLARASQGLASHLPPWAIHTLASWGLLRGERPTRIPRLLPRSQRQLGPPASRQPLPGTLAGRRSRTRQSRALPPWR
T15 sequence (Q12866 21-999): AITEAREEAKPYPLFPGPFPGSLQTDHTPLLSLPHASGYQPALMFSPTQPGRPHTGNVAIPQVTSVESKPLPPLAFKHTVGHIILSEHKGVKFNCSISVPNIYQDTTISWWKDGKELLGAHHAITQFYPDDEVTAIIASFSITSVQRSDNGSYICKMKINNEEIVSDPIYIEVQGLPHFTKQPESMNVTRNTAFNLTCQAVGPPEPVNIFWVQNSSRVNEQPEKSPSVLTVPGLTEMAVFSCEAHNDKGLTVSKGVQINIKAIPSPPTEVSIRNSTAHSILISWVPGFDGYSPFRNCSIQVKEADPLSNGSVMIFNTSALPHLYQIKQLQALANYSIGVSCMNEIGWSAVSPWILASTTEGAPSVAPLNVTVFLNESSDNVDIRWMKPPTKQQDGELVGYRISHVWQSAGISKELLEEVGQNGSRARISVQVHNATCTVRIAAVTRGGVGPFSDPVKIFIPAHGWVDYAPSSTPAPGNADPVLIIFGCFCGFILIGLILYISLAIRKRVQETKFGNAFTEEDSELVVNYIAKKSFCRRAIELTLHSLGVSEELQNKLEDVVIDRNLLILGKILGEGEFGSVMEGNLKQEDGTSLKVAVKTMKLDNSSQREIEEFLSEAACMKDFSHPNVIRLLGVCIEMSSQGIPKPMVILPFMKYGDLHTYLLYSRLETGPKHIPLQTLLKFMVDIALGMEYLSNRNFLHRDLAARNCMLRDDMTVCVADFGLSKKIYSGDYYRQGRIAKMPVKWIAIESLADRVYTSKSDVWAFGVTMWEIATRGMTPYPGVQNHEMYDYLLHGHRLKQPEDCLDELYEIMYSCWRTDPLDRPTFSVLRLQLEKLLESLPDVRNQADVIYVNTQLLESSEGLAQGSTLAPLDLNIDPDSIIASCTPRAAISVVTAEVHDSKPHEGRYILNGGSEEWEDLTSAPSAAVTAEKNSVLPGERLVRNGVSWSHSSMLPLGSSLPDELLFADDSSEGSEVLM
T19 sequence (Q7KZI7 whole entry): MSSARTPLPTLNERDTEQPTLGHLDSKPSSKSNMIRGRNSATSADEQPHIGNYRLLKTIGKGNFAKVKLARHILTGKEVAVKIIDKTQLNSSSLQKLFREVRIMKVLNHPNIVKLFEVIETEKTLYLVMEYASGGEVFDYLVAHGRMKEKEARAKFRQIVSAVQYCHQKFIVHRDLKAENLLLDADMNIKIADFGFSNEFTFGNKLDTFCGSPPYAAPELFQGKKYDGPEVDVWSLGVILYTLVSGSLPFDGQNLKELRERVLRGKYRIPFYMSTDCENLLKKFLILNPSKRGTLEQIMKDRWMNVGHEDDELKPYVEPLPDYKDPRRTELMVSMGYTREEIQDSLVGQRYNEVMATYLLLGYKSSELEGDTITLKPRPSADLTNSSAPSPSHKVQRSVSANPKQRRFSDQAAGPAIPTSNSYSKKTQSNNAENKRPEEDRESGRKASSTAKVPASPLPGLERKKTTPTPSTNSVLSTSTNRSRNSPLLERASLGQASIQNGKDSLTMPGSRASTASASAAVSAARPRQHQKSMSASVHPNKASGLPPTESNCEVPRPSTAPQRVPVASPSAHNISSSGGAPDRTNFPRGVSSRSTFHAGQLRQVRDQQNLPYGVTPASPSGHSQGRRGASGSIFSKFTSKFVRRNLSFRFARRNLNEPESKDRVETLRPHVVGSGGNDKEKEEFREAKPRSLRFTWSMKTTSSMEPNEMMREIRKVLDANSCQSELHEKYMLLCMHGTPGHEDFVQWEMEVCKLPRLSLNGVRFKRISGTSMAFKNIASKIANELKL
T5 sequence (Q9H2K8 whole entry): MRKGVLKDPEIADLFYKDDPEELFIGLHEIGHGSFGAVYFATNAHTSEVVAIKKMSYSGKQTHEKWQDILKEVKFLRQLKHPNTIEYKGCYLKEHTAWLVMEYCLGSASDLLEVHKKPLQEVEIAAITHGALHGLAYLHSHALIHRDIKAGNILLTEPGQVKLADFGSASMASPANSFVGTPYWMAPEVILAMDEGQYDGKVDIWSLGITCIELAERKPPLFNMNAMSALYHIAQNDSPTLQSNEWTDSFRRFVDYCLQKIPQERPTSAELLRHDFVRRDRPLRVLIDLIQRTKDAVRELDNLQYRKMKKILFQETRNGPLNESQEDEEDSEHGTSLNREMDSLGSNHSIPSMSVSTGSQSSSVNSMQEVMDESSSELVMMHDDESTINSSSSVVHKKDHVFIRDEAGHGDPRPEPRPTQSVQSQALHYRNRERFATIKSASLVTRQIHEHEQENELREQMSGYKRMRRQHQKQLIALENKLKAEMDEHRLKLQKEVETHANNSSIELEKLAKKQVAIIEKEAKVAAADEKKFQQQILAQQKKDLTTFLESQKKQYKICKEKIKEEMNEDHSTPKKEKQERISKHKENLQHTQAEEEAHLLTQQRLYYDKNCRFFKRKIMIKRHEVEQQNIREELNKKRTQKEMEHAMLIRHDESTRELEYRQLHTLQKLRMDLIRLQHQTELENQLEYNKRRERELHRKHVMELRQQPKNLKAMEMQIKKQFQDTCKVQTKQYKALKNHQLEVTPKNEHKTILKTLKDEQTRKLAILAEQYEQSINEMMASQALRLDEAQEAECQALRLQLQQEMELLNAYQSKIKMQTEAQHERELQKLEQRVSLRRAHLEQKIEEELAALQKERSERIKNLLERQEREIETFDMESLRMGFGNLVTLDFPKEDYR
T1 sequence (Q9NRM7 whole entry): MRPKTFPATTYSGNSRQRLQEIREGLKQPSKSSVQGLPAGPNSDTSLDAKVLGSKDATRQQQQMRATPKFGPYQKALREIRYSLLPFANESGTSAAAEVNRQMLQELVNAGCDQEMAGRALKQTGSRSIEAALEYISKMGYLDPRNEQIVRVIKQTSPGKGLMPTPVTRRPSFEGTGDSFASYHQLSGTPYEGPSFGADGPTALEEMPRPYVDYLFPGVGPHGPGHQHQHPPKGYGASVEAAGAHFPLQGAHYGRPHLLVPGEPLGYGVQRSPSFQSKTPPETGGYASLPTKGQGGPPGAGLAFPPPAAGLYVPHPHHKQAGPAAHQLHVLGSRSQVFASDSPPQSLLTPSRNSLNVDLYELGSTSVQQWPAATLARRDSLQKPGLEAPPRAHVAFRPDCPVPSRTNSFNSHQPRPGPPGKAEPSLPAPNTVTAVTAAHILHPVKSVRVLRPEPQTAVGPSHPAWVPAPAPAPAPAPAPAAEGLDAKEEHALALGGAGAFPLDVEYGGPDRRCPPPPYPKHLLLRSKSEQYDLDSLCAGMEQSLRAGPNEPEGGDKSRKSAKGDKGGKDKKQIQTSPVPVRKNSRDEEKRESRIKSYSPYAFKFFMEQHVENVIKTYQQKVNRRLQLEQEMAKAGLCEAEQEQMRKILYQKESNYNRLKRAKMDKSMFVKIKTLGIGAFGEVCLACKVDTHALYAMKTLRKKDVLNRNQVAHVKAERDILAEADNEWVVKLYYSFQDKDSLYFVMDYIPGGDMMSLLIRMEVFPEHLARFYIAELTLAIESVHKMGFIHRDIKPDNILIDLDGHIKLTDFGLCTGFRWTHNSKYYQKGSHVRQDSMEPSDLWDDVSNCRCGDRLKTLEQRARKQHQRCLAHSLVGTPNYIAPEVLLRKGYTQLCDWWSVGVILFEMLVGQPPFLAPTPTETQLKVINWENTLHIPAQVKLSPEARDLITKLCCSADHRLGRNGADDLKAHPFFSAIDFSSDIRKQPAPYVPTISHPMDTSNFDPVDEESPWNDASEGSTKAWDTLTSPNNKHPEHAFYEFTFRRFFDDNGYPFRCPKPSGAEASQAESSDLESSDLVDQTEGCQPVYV

Structure (SMILES): CC(=O)Nc1nc2ccc(-c3cnc(C)c(NC(=O)OC4CCCCC4)c3)cc2s1 [PK68, cyclohexyl (5-(2-acetamidobenzo[d]thiazol-6-yl)-2-methylpyridin-3-yl)carbamate]
- Activity% (LATS2; 1 μM): 93.96%
- activity at 1 µM (LATS2): 94.4%
- Activity% (OSR1/OXSR1; 1 μM): 102.40%
- activity at 1 µM (OSR1/OXSR1): 105%
- Activity% (NEK9; 1 μM): 90.50%
- activity at 1 µM (NEK9): 90.9%
- Activity% (CK2a; 1 μM): 90.49%
- activity at 1 µM (CK2a): 95.2%
- Activity% (TAOK3/JIK; 1 μM): 93.52%
- activity at 1 µM (TAOK3/JIK): 94.6%
- Activity% (RET; 1 μM): 66.89%
- activity at 1 µM (RET): 67.7%
- Activity% (TAOK2/TAO1; 1 μM): 81.88%
- activity at 1 µM (TAOK2/TAO1): 82.6%
- Activity% (STK25/YSK1; 1 μM): 104.63%
- activity at 1 µM (STK25/YSK1): 110%
- Activity% (TLK1; 1 μM): 97.39%
- activity at 1 µM (TLK1): 99.2%
- Activity% (ACK1; 1 μM): 84.41%
- activity at 1 µM (ACK1): 85.5%
- Activity% (ERN1/IRE1; 1 μM): 88.33%
- activity at 1 µM (ERN1/IRE1): 88.7%
- Activity% (DMPK; 1 μM): 100.30%
- activity at 1 µM (DMPK): 101%
- Activity% (BMX/ETK; 1 μM): 99.71%
- activity at 1 µM (BMX/ETK): 99.9%
- Activity% (PLK4/SAK; 1 μM): 89.27%
- activity at 1 µM (PLK4/SAK): 91.8%
- Activity% (c-MER; 1 μM): 84.20%
- activity at 1 µM (c-MER): 86%
- Activity% (LYN B; 1 μM): 97.70%
- activity at 1 µM (LYN B): 98%
- Activity% (LCK; 1 μM): 62.75%
- activity at 1 µM (LCK): 62.9%
- Activity% (PYK2; 1 μM): 95.64%
- activity at 1 µM (PYK2): 95.9%
- Activity% (MARK2/PAR-1Ba; 1 μM): 107.76%
- activity at 1 µM (MARK2/PAR-1Ba): 110%
- Activity% (TSSK2; 1 μM): 97.17%
- activity at 1 µM (TSSK2): 98.1%
- clearance ([1]; iv, 2 mg/kg, IV (Bolus)): 21 mL/min/kg
- Vd ([1]; iv, 2 mg/kg, IV (Bolus), read-out: Vss): 1 L/kg
- AUC(0-inf) ([1]; 2 mg/kg, IV (Bolus)): 1590 ng·h/mL
- MRT ([1]; 2 mg/kg, IV (Bolus)): 0.8 h
- half-life ([1]; 2 mg/kg, IV (Bolus)): 1 h
- AUC(0-t) ([1]; 2 mg/kg, IV (Bolus)): 1590 ng·h/mL
- AUC(0-inf) ([1]; 10 mg/kg, PO (Gavage)): 4900 ng·h/mL
- MRT ([1]; 10 mg/kg, PO (Gavage)): 1.8 h
- half-life ([1]; 10 mg/kg, PO (Gavage)): 1.3 h
- AUC(0-t) ([1]; 10 mg/kg, PO (Gavage)): 4820 ng·h/mL
- bioavailability ([1]; 10 mg/kg, PO (Gavage), read-out: F(%) oral bioavailability): 61%
- Cmax ([1]; po, orally 10 mg/kg, read-out: plasma concentration translated from Cmax): ~4 µM
- Tmax ([1]; PO (Gavage), 10 mg/kg): 0.5 h
- Cmax ([1]; PO (Gavage), 10 mg/kg, read-out: Cmax): 2420 ng/mL

From PMC6591251, “Discovery of potent necroptosis inhibitors targeting RIPK1 kinase activity for the treatment of inflammatory disorder and cancer metastasis” (Cell Death & Disease, 2019)
